In patent US20110052503A1, “BIODEGRADABLE CONTRAST AGENTS” (IOPHARMA TECHNOLOGIES AB, priority 2007, published 2011):

Experiment: Stability of iohexyl hexa-acetate in human plasma
Conditions: iohexyl formed from 300 μM IHA in citrated plasma, 37° C., FIG. 1
Procedure: A stock solution of iohexyl hexa-acetate was prepared by adding 100 mg IHA to a 100 ml volumetric flask, followed by 1.0 ml DMSO and deionised water to 100 ml, giving a final concentration of 1.0 mg/ml. The plasma solution was prepared by adding 1.61 ml of the IHA stock solution to 3.39 ml of citrated bovine plasma, giving a final concentration of 300 μM. The citrated human plasma was incubated at 37° C., and 0.25 ml plasma removed at 1, 2, 3, 4, 6, 8, 24, 30 and 48 h. Proteins were discarded from the samples by centrifugal filtration and the resulting filtrates analyzed by HPLC.

## CC(=O)N(CC(O)CO)c1c(I)c(C(=O)NCC(O)CO)c(I)c(C(=O)NCC(O)CO)c1I (centres unmarked) [iohexyl]
First 8 h
  concentration of iohexyl in plasma, first 8 h: constant
From 8 to 48 h
  concentration of iohexyl in plasma, 8 to 48 h: increases dramatically
